Earlier results on three compounds are cited in article PMC6525002 (Cancer Management and Research, 2019).

One data set deals with patients with NSCLC. As to conditions: clinical trials; cited from earlier work.
Data set [1] has as its system NSCLC patients with EGFR mutations. As to conditions: cited from earlier work.
For data set [2] the following is noted: cited from earlier work.

As to `CN(C)C/C=C/C(=O)Nc1cc2c(Nc3ccc(F)c(Cl)c3)ncnc2cc1O[C@H]1CCOC1` [afitinib], in the data set with patients with NSCLC, the frequency of diarrhea was 87.0%.

Consider `C#Cc1cccc(Nc2ncnc3cc(OCCOC)c(OCCOC)cc23)c1` [erlotinib], for which the frequency of diarrhea with patients with NSCLC is on record as 40.0–67.9%. The “response rates on brain metastases” value in data set [1] is 60–80%.

With `COc1cc2ncnc(Nc3ccc(F)c(Cl)c3)c2cc1OCCCN1CCOCC1` [gefitinib], in data set [2] (cancer patients, post-dose), the “time to Cmax” value is 3 h. In addition, the “inter-patient variability of exposure” value in data set [2] (post single-dose exposure) is given as 1.5 fold.
